Reference: ChEMBL document CHEMBL4321837, “Discovery of Potent and Orally Effective Dual Janus Kinase 2/FLT3 Inhibitors for the Treatment of Acute Myelogenous Leukemia and Myeloproliferative Neoplasms” (J Med Chem, 2019)

How the values were obtained:
[1] = test system: MOLM-13; assay: Antiproliferative activity against FLT3-ITD-positive human MOLM13 cells assessed as reduction in cell growth after 72 hrs by MTT assay; assay type: functional, cell-based; conditions: MOLM-13, 72 h
[2] = molecular target: Receptor-type tyrosine-protein kinase FLT3 (Homo sapiens) (UniProt P36888); assay: Inhibition of human FLT3 (564 to end residues) assessed as residual activity at 100 nM using EAIYAAPFAKKK as substrate after 40 mins in presence of [gamma33P]-ATP by scintillation counting based radiometric assay relative to control
[3] = molecular target: Tyrosine-protein kinase JAK1 (Homo sapiens, UniProt P23458); assay: Inhibition of JAK1 in human PBMC cells assessed as reduction in IL-6-induced STAT3 phosphorylation by flow cytometry; assay type: cell-based
[4] = test system: MV4-11; assay: Induction of apoptosis in human MV4-11 cells assessed as necrotic cells at 0.4 uM after 24 hrs by Annexin V FITC/PI staining based flow cytometry analysis (reference value: 0.18%); assay type: functional
[5] = Toxicity in NOD/SCID mouse xenografted with human SET2 cells overexpressing JAK2 V617F mutant assessed as body weight at 30 to 60 mg/kg, po qd for 18 days; assay type: organism-based; conditions: in vivo, 432 h

Sequence of Tyrosine-protein kinase JAK1 (P23458 whole entry): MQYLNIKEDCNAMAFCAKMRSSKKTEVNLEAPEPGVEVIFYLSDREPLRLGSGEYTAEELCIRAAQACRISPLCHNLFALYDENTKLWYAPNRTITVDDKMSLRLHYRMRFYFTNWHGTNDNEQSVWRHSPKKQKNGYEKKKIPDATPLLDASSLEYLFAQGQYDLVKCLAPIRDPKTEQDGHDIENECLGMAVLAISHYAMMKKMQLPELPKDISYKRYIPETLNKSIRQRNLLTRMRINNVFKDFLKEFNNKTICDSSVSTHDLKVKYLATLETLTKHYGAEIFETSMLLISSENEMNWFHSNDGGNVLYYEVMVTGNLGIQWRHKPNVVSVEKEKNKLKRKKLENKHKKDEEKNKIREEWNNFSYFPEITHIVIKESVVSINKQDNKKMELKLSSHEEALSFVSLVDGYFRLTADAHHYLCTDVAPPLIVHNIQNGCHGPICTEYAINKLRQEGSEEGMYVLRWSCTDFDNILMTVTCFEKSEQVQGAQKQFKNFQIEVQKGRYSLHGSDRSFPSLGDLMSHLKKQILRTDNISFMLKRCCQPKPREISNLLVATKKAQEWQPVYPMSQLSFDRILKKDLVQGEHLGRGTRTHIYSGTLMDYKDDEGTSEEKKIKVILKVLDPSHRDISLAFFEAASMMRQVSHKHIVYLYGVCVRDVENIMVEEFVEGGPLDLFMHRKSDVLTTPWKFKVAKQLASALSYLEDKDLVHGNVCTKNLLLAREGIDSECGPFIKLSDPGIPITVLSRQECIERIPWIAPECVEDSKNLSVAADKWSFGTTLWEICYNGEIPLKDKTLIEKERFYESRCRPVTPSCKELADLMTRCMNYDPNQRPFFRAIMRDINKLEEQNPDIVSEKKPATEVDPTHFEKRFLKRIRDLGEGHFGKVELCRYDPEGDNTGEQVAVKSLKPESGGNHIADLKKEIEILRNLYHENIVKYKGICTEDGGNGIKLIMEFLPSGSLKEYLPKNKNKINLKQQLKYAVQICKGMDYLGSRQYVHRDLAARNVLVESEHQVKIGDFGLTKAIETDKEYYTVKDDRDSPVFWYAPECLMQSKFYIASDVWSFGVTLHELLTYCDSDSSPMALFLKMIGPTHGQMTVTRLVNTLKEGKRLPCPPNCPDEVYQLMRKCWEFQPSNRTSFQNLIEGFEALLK
Sequence of Receptor-type tyrosine-protein kinase FLT3 (Homo sapiens) (P36888 whole entry): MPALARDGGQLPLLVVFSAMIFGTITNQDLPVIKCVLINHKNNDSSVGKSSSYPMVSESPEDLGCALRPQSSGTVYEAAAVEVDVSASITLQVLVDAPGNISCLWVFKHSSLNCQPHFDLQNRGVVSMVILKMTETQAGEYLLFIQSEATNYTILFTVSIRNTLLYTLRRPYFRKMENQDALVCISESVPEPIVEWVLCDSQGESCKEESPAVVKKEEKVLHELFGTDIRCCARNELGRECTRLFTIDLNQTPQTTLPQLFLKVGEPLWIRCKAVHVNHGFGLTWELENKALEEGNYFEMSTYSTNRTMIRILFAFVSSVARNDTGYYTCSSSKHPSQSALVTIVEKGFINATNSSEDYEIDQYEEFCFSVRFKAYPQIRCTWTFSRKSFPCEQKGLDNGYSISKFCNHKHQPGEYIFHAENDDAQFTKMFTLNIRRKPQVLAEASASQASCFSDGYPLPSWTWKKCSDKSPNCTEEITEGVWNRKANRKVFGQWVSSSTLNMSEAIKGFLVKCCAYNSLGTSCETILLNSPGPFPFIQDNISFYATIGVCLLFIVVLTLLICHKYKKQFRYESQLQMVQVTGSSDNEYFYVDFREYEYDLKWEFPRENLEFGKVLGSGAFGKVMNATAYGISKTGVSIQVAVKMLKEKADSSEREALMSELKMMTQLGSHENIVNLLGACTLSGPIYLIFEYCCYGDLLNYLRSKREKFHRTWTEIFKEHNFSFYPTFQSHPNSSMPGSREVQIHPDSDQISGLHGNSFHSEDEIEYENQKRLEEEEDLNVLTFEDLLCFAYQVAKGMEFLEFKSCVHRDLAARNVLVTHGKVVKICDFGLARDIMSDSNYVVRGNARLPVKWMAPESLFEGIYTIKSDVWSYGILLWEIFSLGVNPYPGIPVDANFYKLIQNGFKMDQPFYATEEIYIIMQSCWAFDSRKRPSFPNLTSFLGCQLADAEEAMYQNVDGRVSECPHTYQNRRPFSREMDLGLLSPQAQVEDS

Cc1cnc(Nc2ccc(N3CCC(N(C)CCO)CC3)c(F)c2)nc1-c1cnn(C(C)C)c1
IC50 [1]: 72 nM
Activity [2]: 4%
IC50 [3]: 94.2 nM
Activity [4]: 1.04%
Activity [5]: Non-Toxic
